Assay results reported in patent publication US12152038B2, “Vasopressin receptor antagonists and products and methods related thereto” (Neumora Therapeutics, Inc., priority 2017, dated 2024).

Columns and labels:
[1] = target: T1, human Arginine Vasopressin Receptor 1a (AVPR1a) (Homo sapiens, UniProt P37288); experiment: Vasopressin V1a receptor antagonist assay (FLIPR calcium, CHO-AVPR1a cells); type: cell-based
T1 construct: expressed in transfected cells; host or cells: CHO (CHO-AVPR1a, kept under G418 selection)
Summary of the method: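 CHO cells expressing human AVPR1a were loaded with Calcium-6 dye and preincubated with compound for 15 min at 37° C. Cells were then challenged with AVP at its daily-determined EC80, and FLIPR fluorescence was read. Compounds were tested in duplicate as 10-point 1:3 dilutions from a top final concentration of 3 μM.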

[2] = target: T2, human Oxytocin Receptor (hOTR) (Homo sapiens, UniProt P30559); experiment: Oxytocin receptor (OTR) antagonist assay (FLIPR calcium, CHEM-1-hOTR cells); type: cell-based
T2 construct: host or cells: CHEM-1 (ready-to-assay frozen cells)
T2 sequence (P30559 1-389): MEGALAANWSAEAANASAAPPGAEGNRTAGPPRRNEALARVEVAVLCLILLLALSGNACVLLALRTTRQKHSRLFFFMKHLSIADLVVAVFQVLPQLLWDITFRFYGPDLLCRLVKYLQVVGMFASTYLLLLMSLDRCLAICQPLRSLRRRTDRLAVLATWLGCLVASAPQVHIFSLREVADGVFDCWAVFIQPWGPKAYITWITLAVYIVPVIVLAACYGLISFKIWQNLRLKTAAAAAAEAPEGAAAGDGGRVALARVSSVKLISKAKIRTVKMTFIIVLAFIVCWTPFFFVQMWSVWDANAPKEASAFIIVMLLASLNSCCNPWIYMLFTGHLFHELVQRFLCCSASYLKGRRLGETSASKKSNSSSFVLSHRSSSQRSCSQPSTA
Protocol: This assay was performed in CHEM-1 cells expressing the human Oxytocin Receptor (hOTR) to determine the inhibitory effect of the compounds of the invention on the human Oxytocin receptor. Oxytocin evokes an increase in intracellular calcium in CHEM-1-hOTR cells which is measured in a fluorescence assay on the FLIPR^TETRA using calcium sensitive dyes. Test compounds were assessed for their ability to affect the magnitude of the response to oxytocin, with antagonists showing a concentration-dependent reduction in the oxytocin-mediated fluorescence.
CHEM-1-hOTR ready was used to assay frozen cells (Eurofins #HTS09ORTA) which are supplied with a proprietary Media Component.
Day 1 of the assay: Cells were thawed in a 37° C. water bath and diluted with the supplied Media Component to a final volume of 10 ml. The cell suspension was centrifuged at 1000 rpm for 3 min at room temperature and the supernatant was discarded. The cell pellet was resuspended in Media Component (10.5 ml) and the cells (25 μL) were dispensed into a poly-D-lysine coated black, clear bottomed, 384-well plate. The plates were incubated overnight at 37° C., 5% CO2.
Day 2: At the start of each assay day the potency of oxytocin was assessed and an EC80 concentration was determined for subsequent compound profiling. Assays were performed using a two-step addition protocol on the FLIPR^TETRA; first addition of 5 μl of control or test compound at 10× final in assay buffer with 15 min incubation at 37° C., 5% CO2 followed by 10 μl of oxytocin at 6× final concentration in assay buffer. Changes in fluorescence were monitored for 3 min after both additions on the FLIPR^TETRA using 470-495 nm excitation and 515-575 nm emission wavelengths. The assay buffer consisted of HBSS (+Ca/+Mg) supplemented with 20 mM HEPES, and for the preparation of the oxytocin agonist only, 0.1% w/v bovine serum albumin. The assay was initiated by the removal of growth media from the cells and replaced with 45 μl of Calcium-6 dye (Molecular Devices) prepared at 1× in assay buffer. Cells were loaded with dye for 60-90 min at 37° C., 5% CO2 before initiation of the FLIPR^TETRA protocol. […] For compound profiling, test compounds were first serially diluted in DMSO (10-point curve, 1:3 dilutions) then diluted 33.3-fold in assay buffer prior to addition to the dye loaded cells on the FLIPR^TETRA. At the end of the incubation period 10 μl of oxytocin in assay buffer containing 0.1% BSA was added at the previously determined EC80 concentration.
In-plate controls for the assay included a L-368,899 concentration-response curve as the reference OTR antagonist and an oxytocin concentration-response curve to confirm the reproducibility of the EC80 used for the compound challenge.

T1 sequence (P37288 whole entry): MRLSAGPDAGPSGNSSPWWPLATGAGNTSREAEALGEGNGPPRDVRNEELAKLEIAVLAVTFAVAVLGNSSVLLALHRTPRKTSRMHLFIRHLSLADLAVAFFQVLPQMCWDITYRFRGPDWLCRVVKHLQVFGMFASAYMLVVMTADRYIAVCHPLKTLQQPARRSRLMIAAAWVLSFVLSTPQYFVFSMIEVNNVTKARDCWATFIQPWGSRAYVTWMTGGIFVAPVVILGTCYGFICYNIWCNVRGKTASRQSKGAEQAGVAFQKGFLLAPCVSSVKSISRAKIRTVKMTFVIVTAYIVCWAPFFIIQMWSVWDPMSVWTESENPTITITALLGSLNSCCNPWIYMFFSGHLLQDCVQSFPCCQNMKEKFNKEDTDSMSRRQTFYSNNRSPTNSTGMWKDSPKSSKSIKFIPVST

Compound	IC50 [1] [µM]	IC50 [2] [µM]
CC1CN(C(=O)N2CC3(C2)CN(c2ccc(F)cn2)C3)c2ccc(Cl)cc2O1 (single isomer, unassigned) [9-3-A]	< 0.1	0.5 to 1
CC1COc2cc(Cl)ccc2N1C(=O)N1CC2(C1)CN(c1cccnn1)C2 (single isomer, unassigned) [9-1-B]	< 0.1	0.1 to 0.5
CC1COc2cc(F)c(F)cc2N1C(=O)N1CC2(C1)CN(c1ncccn1)C2 (single isomer, unassigned) [19-1-B]	< 0.1	≥ 1
Cc1nccnc1N1CC2(CN(C(=O)N3c4ccc(Cl)cc4OCC3C)C2)C1 (single isomer, unassigned) [20-10-A]	< 0.1	0.1 to 0.5
Cc1ccnc(N2CC3(CN(C(=O)N4c5ccc(F)cc5OCC4C)C3)C2)c1 (single isomer, unassigned) [20-4-B]	< 0.1	0.5 to 1
Cc1nc(N2CC3(CN(C(=O)N4c5ccc(Cl)cc5OCC4C)C3)C2)ncc1F (single isomer, unassigned) [20-7-B]	< 0.1	0.1 to 0.5
CC1COc2cc(Cl)ccc2N1C(=O)N1CC2(C1)CN(c1noc3cccnc13)C2 (single isomer, unassigned) [18-3-B]	< 0.1	≥ 1

Second part, the compound after the results:

IC50 [1] [µM]	IC50 [2] [µM]	Compound
< 0.1	< 0.1	CCC1COc2cc(Cl)ccc2N1C(=O)N1CC2(C1)CN(c1ccccn1)C2 (stereo not drawn) [11-1, (7-chloro-3-ethyl-2,3-dihydro-4H-benzo[b][1,4]oxazin-4-yl)(6-(pyridin-2-yl)-2,6-diazaspiro[3.3]heptan-2-yl)methanone]
< 0.1	< 0.1	CC1Cc2cc(Cl)ccc2N1C(=O)N1CC2(C1)CN(c1ccc(F)cn1)C2 (stereo not drawn) [8-16]
< 0.1	0.1 to 0.5	CC1COc2cc(Cl)ccc2N1C(=O)N1CC2(C1)CN(c1cccnn1)C2 (stereo not drawn) [9-1, (7-chloro-3-methyl-2,3-dihydro-4H-benzo[b][1,4]oxazin-4-yl)(6-(pyridazin-3-yl)-2,6-diazaspiro[3.3]heptan-2-yl)methanone]
< 0.1	0.5 to 1	CC1COc2cc(Cl)c(F)cc2N1C(=O)N1CC2(C1)CN(c1ncccn1)C2 (stereo not drawn) [19-2]
< 0.1	≥ 1	O=C(N1CC2(C1)CN(c1ccc(F)cn1)C2)N1CCC(F)c2cc(Cl)ccc21 (stereo not drawn) [14-1, (6-chloro-4-fluoro-3,4-dihydroquinolin-1(2H)-yl)(6-(5-fluoropyridin-2-yl)-2,6-diazaspiro[3.3]heptan-2-yl)methanone]
< 0.1	0.1 to 0.5	Cc1cncc(N2CC3(CN(C(=O)N4c5ccc(F)cc5OCC4C)C3)C2)n1 (stereo not drawn) [20-2]
< 0.1	0.1 to 0.5	Cc1nc(N2CC3(CN(C(=O)N4c5ccc(Cl)cc5OCC4C)C3)C2)ncc1F (stereo not drawn) [20-7]
< 0.1	0.1 to 0.5	CC1COc2cc(Cl)ccc2N1C(=O)N1CC2(C1)CN(c1cccnc1)C2 (stereo not drawn) [20-1, (7-chloro-3-methyl-2,3-dihydro-4H-benzo[b][1,4]oxazin-4-yl)(6-(pyridin-3-yl)-2,6-diazaspiro[3.3]heptan-2-yl)methanone]
< 0.1	≥ 1	O=C(N1CC2(C1)CN(c1ccc(F)cn1)C2)N1CCOc2cc(Cl)ccc21 [9-7]
< 0.1	0.1 to 0.5	CC1COc2cc(Cl)c(F)cc2N1C(=O)N1CC2(C1)CN(c1cccnc1)C2 (stereo not drawn) [19-6]
< 0.1	0.1 to 0.5	COc1ccnc(N2CC3(CN(C(=O)N4c5ccc(Cl)cc5OCC4C)C3)C2)c1 (stereo not drawn) [20-8]
< 0.1	0.1 to 0.5	Cc1ccnc(N2CC3(CN(C(=O)N4c5ccc(Cl)cc5OCC4C)C3)C2)c1 (stereo not drawn) [20-11]
< 0.1	≥ 1	O=C(N1CC2(C1)CN(c1ccc(F)cn1)C2)N1CCC(O)c2cc(Cl)ccc21 (stereo not drawn) [13-1, (6-chloro-4-hydroxy-3,4-dihydroquinolin-1(2H)-yl)(6-(5-fluoropyridin-2-yl)-2,6-diazaspiro[3.3]heptan-2-yl)methanone]
< 0.1	0.1 to 0.5	CC1COc2cc(Cl)c(F)cc2N1C(=O)N1CC2(C1)CN(c1cccnn1)C2 (stereo not drawn) [19-4]
